Results taken from patent publication US20140121278A1, “ANTI-TUMOR AGENT OTX-008 TARGETS HUMAN GALECTIN-1” (REGENTS OF THE UNIVERSITY OF MINNESOTA, priority 2012, published 2014).
Read-outs that look alike come from different tables or passages of the source.

What was measured:
human galectin-1 (gal-1) = biological target: T1, human galectin-1 (gal-1) (Homo sapiens, UniProt P09382); test: 1H-15N HSQC NMR binding of OTX-008 to 15N-labeled gal-1; conditions: total gal-1 monomer 60 μM, pH 7.0, 30° C., HSQC intensity changes averaged over all resonances; read-out: Kd, estimate from mid-point of saturable binding curve (free OTX-008 at 50% intensity change)
T1 construct: made in house; host or cells: E. coli BL21 (DE3)
Protocol: Galectin-1 preparation. […] Typically, 44 milligrams of purified protein were obtained from 1 liter of cell culture. The purity of the final sample was quantified by using the Biorad protein assay and was checked for purity by using SDS PAGE. Functional activity of the purified protein was assessed by a T-cell death assay (Nesmelova et al., 2008, Biomol NAR Assignments; 2(2):203-205).
Heteronuclear NMR Spectroscopy. […]
NMR experiments were carried out at 30° C. on a Varian Unity Inova 600-MHz spectrometer equipped with an H/C/N triple-resonance probe and x/y/z triple-axis pulse field gradient unit. […] Raw data were converted and processed by using NMRPipe (Delaglio et al., 1995, J Biomol NMR; 6(3):277-293) and were analyzed by using NMRview (Johnson, 2004, Methods Mol Biol; 278:313-352).
Although an accurate equilibrium ligand dissociation constant, Kd cannot always be determined from data such as these, a plot of OTX-008-induced intensity changes averaged over all resonances vs. the concentration of OTX-008 does yield a saturable binding curve (inset of FIG. 2). […]

[1] = biological target: T2, gal-1 binding to cell surface glycans on splenocytes (CD4+ and CD8+ leukocytes, CD31+ endothelial cells) (Homo sapiens, UniProt P09382); test: Flow cytometry: FITC-gal-1 binding to cell surface glycans on splenocytes; format: cell-based, gal-1 null mice; conditions: for inhibition at 20 µM: 20 μM OTX-008, 0.1 μM gal-1; for inhibition at 100 µM: 100 μM OTX-008
T2 construct: made in house; host or cells: E. coli BL21 (DE3) (the only gal-1 preparation described)
Protocol: FIGS. 6A and 6B depict the results of flow cytometry used to assess the effects of OTX-008 (“0118”) on FITC-gal-1 binding to splenocytes (CD4+ and CD8+ leukocytes and CD31+ endothelial cells). FIG. 6A illustrates the binding of FITC-gal-1 (0.1 μM or 0.2 μM) to these cells as a function of OTX-008 concentration. FIG. 6B illustrates the binding to CD4+ and CD8+ leukocytes and CD31+ endothelial cells derived from male or female gal-1−/− null mice. FITC-Galectin-1 preparation. Gal-1 was conjugated with fluorescein isothiocyanate (FITC) using a FITC:protein molar ratio of 10:1. Gal-1 (2 mg/ml) was dissolved in […] of 20 mM potassium phosphate buffer, pH 7.4, followed by addition of approximately 50 μL FITC (10 mg/ml) that had been dissolved in 0.1 mM sodium bicarbonate. The resulting lower pH (approximately pH 8) ensured selective labeling at the N-terminal amine group of the protein (Hungerford et al., 2007, Photochem Photobiol Sci; 6(2):152-158; and Hermanson, 2008, Bioconjugate Techniques, 2nd ed.; Academic Press: Burlington, Mass. Part 1, 1202 pp). This solution was then mixed thoroughly and incubated at room temperature (22° C.) for 18 hours in the dark. During the course of the reaction, the mixture was gently vortexed 3 or 4 times. The resulting FITC-labeled protein was separated from unbound dye by filtration using an Amicon Ultra cellulose filter (Millipore, 10 kDa cut-off). […] Flow Cytometry. Male and female gal-1 null mice (Jackson Laboratory) were provided water and standard chow ad libitum and were maintained on a 12-hour light/dark cycle prior to experiments that were approved by the University of Minnesota Research Animal Resources Ethical Committee. For FACS experiments, spleens from these mice (6-10 weeks old) were harvested and non-enzymatically disrupted by shear force to yield single-cell suspensions (Dings et al., 2011, Clin Cancer Res; 17(10):3134-3145). Cell suspensions were prepared in Hanks's balanced solution. Red blood cells were lysed in ACK (Lonza Walkersville) for 5 minutes on ice and suspensions were filtered through nylon mesh. Spleen cells were then washed and incubated with monoclonal antibodies as indicated for 40 minutes on ice. After an additional washing step, various concentrations of gal-1 (with or without OTX-008) were added and incubated for 30 minutes on ice. Prior to FACS analysis, cell suspensions were washed once more and analyzed by multi-parameter flow cytometry on a LSR II flow cytometer (BD Biosciences) using Flowjo software (Tree Star, Inc.) (Dings et al., 2011, Clin Cancer Res; 17(10):3134-3145).

Jurkat E6.1 cells = test: Agglutination assay, gal-1 induced; format: cell-based; conditions: Homo sapiens, 20 μM OTX-008, 1 μM gal-1, 22° C., read-out: inhibition of cell agglutination
Protocol: FIG. 7 depicts Jurkat E6.1 cells agglutination as induced by addition of 1 μM gal-1 and incubated at 22° C. on plastic, round bottom chamber slides (Nunc, Naperville, Ill., USA), in medium alone or in the presence of 20 μM OTX-008 (“0118”).
Agglutination Assay. Jurkat E6.1 cells (2×10^6/200 μL RPMI 1640 medium) agglutination was induced by 1 μM gal-1 and were incubated on plastic round bottom chamber slides (Nunc, Naperville, Ill., USA) in medium alone or with 20 μM OTX-008 at 22° C. Subsequently the cells were analyzed for agglutination with an Axiovert 10 inverted phase microscope equipped with a digital camera system (Zeiss, Germany), and digitally analyzed and differentially quantified by morphometric analysis, as described earlier (Dings et al., 2008, Cancer Lett; 265(2):270-280; and Dings et al., 2010, Bioconjugate Chem; 21(1):20-27).

human cancer cell lines = test: Cell viability assay (MTT); format: cell-based; conditions: 72 h drug exposure, 48 h wash-out
Source text: FIGS. 8A-8C illustrate the concentration of OTX-008 (“0118”) required for inhibiting cell viability is proportional to Gal-1 expression. FIG. 8A illustrates the anti-viability effects (expressed as % change in cell numbers over time) of OTX-008 using the MTT assay in human cancer cell lines. FIG. 8B illustrates cancer cells that are sensitive to OTX-008 expressed […] galectin-1 protein expression as determined using Western Blot analysis. FIG. 8C illustrates that concentration of OTX-008, as established by plotting the IC50 in cancer cells, is proportional to their relative LGALS1 mRNA expression as assessed by qRT-PCR.
Cell lines. HEP2, SQ20B, HT29, DU145, and SKHEP1 cells were obtained from the ATCC (Rockville, Md., USA). COL0205-S cells were obtained from the National Cancer Institute collection. […]
Cell viability assay. Cell viability (i.e. cell proliferation and/or cytotoxicity) was determined using the MTT assay (3-[4,5-dimethylthiazol-2-yl]-2,5-diphenyltetrazolium bromide; Sigma, Saint-Quentin Fallavier, France). […] After incubation, the supernatant was discarded, insoluble formazan precipitates were dissolved in 0.1 mL of DMSO and the absorbance was measured at 560 nm by use of a microplate reader (Thermo, France). […] IC50 was determined as half the maximal inhibitory drug concentration for each cell line.

[2] = Phase I clinical trial with terminal cancer patients; format: in vivo, human; conditions: preliminary, daily subcutaneous injection, 1 mg/Kg
Source text: In an embodiment, OTX-008 is a therapeutic agent for use against cancer. As a therapeutic agent, calixarene OTX-008 is a significant improvement over both Anginex and 6DBF7, as well as over any carbohydrate-based compound, for multiple reasons. OTX-008 (937 Da) approaches the generally accepted definition of a “small molecule” (i.e. <500 Da). OTX-008 should have better in vivo exposure, because it is non-peptidic and non-carbohydrate, and therefore is non-hydrolyzable. Moreover, because of its aryl-crown structure, OTX-008 should be chemically stable and less likely to be metabolized in vivo than any peptide or carbohydrate-based compound. […] In an embodiment, OTX-008 is a promising anti-tumor agent that targets galectin-1 as a first-in-class therapeutic agent.

[3] = read-out: inhibition of gal-1 binding to CD4+ (or CD8+) cells
[4] = read-out: inhibition of gal-1 binding to CD31+ cells

T2 sequence (P09382 whole entry): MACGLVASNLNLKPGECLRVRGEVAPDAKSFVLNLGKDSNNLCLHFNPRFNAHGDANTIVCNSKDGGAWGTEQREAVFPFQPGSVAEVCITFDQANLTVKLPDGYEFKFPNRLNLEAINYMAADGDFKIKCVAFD
T1 sequence (P09382 whole entry): as above

Kd (human galectin-1 (gal-1)): ~30 µM | inhibition at 20 µM [1, 3]: ~80% | inhibition at 20 µM [1, 4]: ~50% | inhibition at 100 µM [1, 3]: 100% | inhibition at 100 µM [1, 4]: ~70% | half-life ([2]; human, in vivo, sc): ~48 h
SMILES: CN(C)CCNC(=O)COc1c2cccc1Cc1cccc(c1OCC(=O)NCCN(C)C)Cc1cccc(c1OCC(=O)NCCN(C)C)Cc1cccc(c1OCC(=O)NCCN(C)C)C2 [OTX-008]
inhibition at 20 µM (Jurkat E6.1 cells): ~80% | inhibition of cell viability on several cell types in culture (human cancer cell lines): dose-dependent | disease state [2]: apparent stabilization of disease state | toxicity [2]: absence of toxicity
